Read-outs that look alike come from different tables or passages of the source.

The conditions of data set [1]: cited from earlier work.
For data set [2] the following is noted: oral; no dose-limiting toxicities; cited from earlier work.
For data set [3] the following is noted: cited from earlier work. This is another data set of the same source.
Another data set has as its system donor CD8^+ T-cells. Briefly: T cell phenotyping in the GvL mouse model (WEHI-3B), spleen day 12. The format is in vivo. The settings on record: allo-transplanted leukemia bearing BALB/c mice, vs vehicle. An excerpt:
FIG. 3: MDM2-inhibition promotes cytotoxicity and longevity of donor T cells • (a-h) Scatter plots and representative histograms show expression of Perforin (a, b), CD107a (c, d), IFN-γ (e, f), TNF-α (g, h) of CD8^+ T-cells isolated from spleen on day 12 following allo-HCT of WEHI-3B leukemia bearing BALB/c mice transplanted with C57BL/6 BM plus allogeneic C57BL/6 T-cells and treated with either vehicle or MDM2-inhibitor RG-7112. Mean value±SEM from n=14-19 biologically independent animals per group from 2 experiments are shown and p-values were calculated using two-sided Mann-Whitney U test. (m) Quantification of donor-derived (H-2kb+) TCRb+CD8+CD27+ TIM3+ T cells from allo-transplanted leukemia bearing BALB/c mice treated with RG-7112 or vehicle as indicated. (a) A representative flow cytometry histogram depicts the mean fluorescence intensity (MFI) and scatter plot showing fold-change of MFI for CD69 of all living donor (H-2kb^+) CD8^+ T cells from leukemia bearing BALB/c mice undergoing allo-HCT and being treated with vehicle. […] P-values were calculated using the two-sided Mann-Whitney U test. […] P-values were calculated using the two-sided Mann-Whitney U test. No difference in CD8 T-cells/all CD3 T-cells was detected. […] Mean value±SEM from n=14-19 biologically independent animals per group from 2 experiments are shown and p-value was calculated using two-sided Mann-Whitney U test. […]

The conditions of data set [4]: single oral doses; GI toxicities the most common AEs; cited from earlier work.
A further data set concerns advanced solid tumor. The following applies: cited from earlier work.
For data set [5] the following is noted: combined with pimasertib, cited from earlier work.
Data set [6] concerns p53-knockdown OCI-AML3 cells. Put plainly: Expression in p53-knockdown cells (flow cytometry, western blot). The format is cell-based, human. The following applies: FIG. 9a. The method, then:
MFI of control-treated cells was set as 1.0. P-values were calculated using the two-sided Student's unpaired t-test.
MFI of control-treated cells was set as 1.0. P-values were calculated using two-sided Student's unpaired t-test.
(a) Representative western blot (left panel) showing the expression of MDM2, p53 and loading control (GAPDH) in WT OCI-AML3 cells or p53 knockdown OCI-AML3 cells exposed to […] doxorubicin for 4 hours, when indicated. Right panel: Quantification of the relative intensity of the protein bands for each group.
P53 knockdown cells have been previously described (24). The p53 shRNA (p53.1224) had been cloned into a retroviral vector that co-expressed red fluorescent protein and which could be induced by doxycycline (24). […]
For excluding dead cells, the LIVE/DEAD Fixable Dead Cell Stain kit (Molecular Probes, USA) or LIVE/DEAD™ Fixable Aqua Dead Cell Stain Kit (Thermo Scientific) along with True Stain FcX (BioLegend) were used, according to the manufacturer's instructions. For all flurochrome-conjugated antibodies, optimal concentrations were determined using titration experiments. […] Data were acquired on the BD LSR Fortessa flow cytometer (BD Biosciences, Germany) and analyzed using Flow Jo software version 10.4 (Tree Star, USA). […]
(A flow cytometer gives signals particle by particle.)

A further data set has as its system OCI-AML3 cells. Briefly: Killing assay with recombinant hTRAIL, viability by flow cytometry. The format is cell-based, human. The settings on record: p53^−/− AML cells, FIG. 9e. The method, then: After 48 hours limiting concentrations of hTRAIL (TNFSF 10) were added for 24 hours, where indicated. The viability of the AML cells was measured by flow cytometry. […] P-values were calculated using two-sided Student's unpaired t-test.
Where indicated wildtype OCI-AML3 (WT) or p53 knockout (p53^−/−) OCI-AML3 were incubated with 1 μM MDM2-inhibitor RG7112. After 48 hours limiting concentrations of hTRAIL (TNFSF 10) were added for 24 hours where indicated. Viability of cells was measured by flow cytometry. […] P-values were calculated using two-sided Student's unpaired t-test.
For Killing assays using recombinant hTRAIL ((TNFSF 10, Apo-2L, CD253;) […]®; ENZO), the ligand was added for 24 h 0.5 μg/ml (1:1000) for optimal killing and 0.25 μg/ml (1:2000) for limiting killing conditions to OCI-AML3 target cells. Viability of cells was assessed by LIVE/DEAD™ Fixable Aqua Dead Cell Stain Kit (Thermo Scientific). Data were acquired on the BD LSR Fortessa flow cytometer (BD Biosciences) and analyzed using Flow Jo software version 10.4 (Tree Star).

With `CC(C)[C@@H](CS(=O)(=O)C(C)C)N1C(=O)[C@@](C)(CC(=O)O)C[C@H](c2cccc(Cl)c2)[C@H]1c1ccc(Cl)cc1` [AMG 232], the MTD entry in data set [1] (dose escalation discontinued because of gastrointestinal AEs) is “not reached”. In addition, in data set [1] (in vivo), the “treatment-related AE decreased appetite” value is 25%, the “treatment-related AE diarrhea” value was 56%, the “treatment-related AE nausea” value is recorded as 58% and the “treatment-related AE vomiting” value was 33%.
Consider `CCN1[C@@H](C(=O)NC23CCC(C(=O)O)(CC2)CC3)[C@H](c2cccc(Cl)c2F)[C@]2(C(=O)Nc3cc(Cl)ccc32)C12CCCCC2` [APG-115], for which, in [2], the optimum dose was 100 mg.
Consider `COc1ncc(-c2nc3c(n2C(C)C)[C@H](c2ccc(Cl)cc2)N(c2cc(Cl)cn(C)c2=O)C3=O)c(OC)n1` [HDM201], for which, in data set [3] (Reg 1), the “grade 3/4 adverse event anemia” value was 8%, the “grade 3/4 adverse event neutropenia” value is given as 26% and the “grade 3/4 adverse event thrombocytopenia” value is reported as 24%. In [3] (Reg 2), the “grade 3/4 adverse event anemia” value is on record as 17%, the “grade 3/4 adverse event neutropenia” value is given as 14% and the “grade 3/4 adverse event thrombocytopenia” value is on record as 28%.
Take `CCOc1cc(C(C)(C)C)ccc1C1=N[C@@](C)(c2ccc(Cl)cc2)[C@@](C)(c2ccc(Cl)cc2)N1C(=O)N1CCN(CCCS(C)(=O)=O)CC1` [RG7112]: the “CD8 T-cells/all CD3 T-cells” value in the data set on donor CD8^+ T-cells is “No difference”. In [4], the tolerability result is on record as “generally well tolerated”.
As for `CC(C)(C)C[C@@H]1N[C@@H](C(=O)N[C@H]2CC[C@H](O)CC2)[C@H](c2cccc(Cl)c2F)[C@]12C(=O)Nc1cc(Cl)ccc12` [SAR405838], in the data set on advanced solid tumor (74 patients treated), the “3-month progression free rate” value is 32% and the “best response, patients” value is recorded as 56%. Also, the safety profile result in the data set with advanced solid tumor (patients with advanced solid tumors) is recorded as “acceptable safety profile”. In addition, in [5] (26 patients), the “adverse event blood creatine phosphokinase” value is 77%, the adverse event diarrhoea is on record as 81%, the adverse event nausea is reported as 62% and the adverse event vomiting was 62%. The “safety profile of the combination” value in data set [5] was “consistent with the safety profiles of both the drugs”.
On to `COc1cccc2c1C(=O)c1c(O)c3c(c(O)c1C2=O)C[C@@](O)(C(=O)CO)C[C@@H]3O[C@H]1C[C@H](N)[C@H](O)[C@H](C)O1` [doxorubicin], for which the “induction of p53” value in data set [6] is given as “decreased”.

B1: TRAIL: recombinant hTRAIL (TNFSF 10, Apo-2L, CD253) (protein)
chain: TSEETISTVQEKQQNISPLVRERGPQRVAAHITGTRGRSNTLSSPNSKNEKALGRKINSWESSRSGHSFLSNLHLRNGELVIHEKGFYYIYSQTYFRFQEEIKENTKNDKQMVQYIYKYTSYPDPILLMKSARNSCWSKDAEYGLYSIYQGGIFELKENDRIFVSVTNEHLIDMDHEASFFGAFLVG
For the molecule B1, the apoptosis induced result with OCI-AML3 cells is “less apoptosis”.

Source of the values: patent US20230338374A1, “MDM2 INHIBITORS FOR USE IN THE TREATMENT OR PREVENTION OF HEMATOLOGIC NEOPLASM RELAPSE AFTER HEMATOPOIETIC CELL TRANSPLANTATION” (Novartis AG, priority 2020, published 2023).
